Earlier results in patent US20110086898A1, “PYRAZOLOOXAZOLE COMPOUND” (Eisai R&D Management Co., Ltd., priority 2009, published 2011).

What was measured:
[1] = system: depression, depressive symptoms, anxiety; settings: Journal of Psychiatric Research, 34:171-181 (2000); cited from earlier work
rats [2] = settings: European Journal of Neuroscience, 13:373-380 (2001); cited from earlier work
high-anxiety rats = settings: particularly in high-anxiety rats; Journal of Psychiatric Research, 36:197-208 (2002); cited from earlier work
[3] = system: hippocampal tau phosphorylation; settings: Journal of Neuroscience, 27 (24): 6552-6562 (2007); cited from earlier work
[4] = system: hypertension induced by intraventricular administration of CRF; settings: Brain Research, 881: 204-207 (2000); cited from earlier work
rats [5] = settings: Psychopharmacology, 150:317-324 (2000); cited from earlier work
[6] = system: gastric emptying retardation after surgery; settings: Gastroenterology, 125:654-659 (2003); cited from earlier work
[7] = system: learning disability following acute stress; settings: Behavioural Brain Research, 138: 207-213 (2003); cited from earlier work
[8] = system: naltrexone-induced morphine withdrawal symptoms; settings: pretreatment; Journal of Neurochemistry, 74: 199-208 (2000); cited from earlier work
rats [9] = settings: Psychopharmacology, 137:184-190 (1998); cited from earlier work
rats [10] = settings: European Journal of Pharmacology, 492:195-201 (2004); cited from earlier work

## CCCN(CCC)c1cc(C)nc2c(-c3cnc(N(C)C)cc3C)c(C)nn12 [Example R121919]
[1]
  ameliorating depression, depressive symptoms, anxiety: effective
Rats [2]
  anti-anxiety action: exhibits an anti-anxiety action
high-anxiety rats
  stress-related sleep disorder: inhibits

## CCCCN(CC)c1nc(C)nc2c1c(C)c(C)n2-c1c(C)cc(C)cc1C [antalarmin]
[3]
  stress-induced hippocampal tau phosphorylation: inhibits
[4]
  hypertension induced by intraventricular administration of CRF: inhibits

## CCCCN(CC)c1nc(C)nc2c1c(C)cn2-c1c(C)cc(C)cc1C [CP-154526]
Rats [5]
  recurrence of stress-elicited alcohol-seeking behavior: inhibits
[6]
  gastric emptying retardation after surgery: recovers
[7]
  learning disability following acute stress: inhibits
[8]
  naltrexone-induced morphine withdrawal symptoms: inhibits
Rats [9]
  recurrence of stress-elicited drug (heroin, cocaine)-seeking behavior: inhibits
Rats [10]
  anti-depressant and anti-anxiety actions: exhibits anti-depressant and anti-anxiety actions
